Measured values published in patent US20220324770A1, “NITRIFICATION INHIBITORS” (The University of Melbourne, priority 2019, published 2022).

Experiments:
Horsham soil = test: Soil microcosm incubation (nitrification of applied ammonium), Horsham soil
Dahlen soil = test: Soil microcosm incubation (nitrification of applied ammonium), Dahlen soil; conditions: for Nitrified NH4+—N (%) Day 3 / Nitrified NH4+—N (%) Day 7 / Nitrified NH4+—N (%) Day 14 / Nitrified NH4+—N (%) Day 21 / Nitrified NH4+—N (%) Day 28: 10 mol %
South Johnstone soil = test: Soil microcosm incubation (nitrification of applied ammonium), South Johnstone soil; conditions: for Nitrified NH4+—N (%) Day 3 / Nitrified NH4+—N (%) Day 7 / Nitrified NH4+—N (%) Day 14 / Nitrified NH4+—N (%) Day 21 / Nitrified NH4+—N (%) Day 28: 10 mol %
[1] = Horsham soil pH 8.8, 25° C., 10 mol %
[2] = Horsham soil pH 8.8, 35° C., 10 mol %
[3] = Dahlen soil, 35° C., after 28 days
[4] = Table 4, Dahlen soil pH 7.3, 25° C.
[5] = Table 4, Dahlen soil pH 7.3, 35° C.
[6] = South Johnstone soil pH 5.0, 25° C.
[7] = South Johnstone soil pH 5.0, 35° C.

SMILES: CCCc1cn(CCC)nn1 [Compound 16, 1,4-dipropyl-1H-1,2,3-triazole]
- Nitrified NH4+—N (%) Day 3 (Horsham soil; Horsham soil pH 8.8, 25° C., inhibitors 10 mol % of applied N): 8.9 ± 3.4%
- Nitrified NH4+—N (%) Day 7 (Horsham soil; [1]): 24.9 ± 3.0%
- Nitrified NH4+—N (%) Day 14 (Horsham soil; [1]): 44.2 ± 3.3%
- Nitrified NH4+—N (%) Day 21 (Horsham soil; [1]): 57.5 ± 3.4%
- Nitrified NH4+—N (%) Day 28 (Horsham soil; [1]): 70.9 ± 3.9%
- Nitrified NH4+—N (%) Day 3 (Horsham soil; [2]): 2.5 ± 4.5%
- Nitrified NH4+—N (%) Day 7 (Horsham soil; [2]): 22.3 ± 4.3%
- Nitrified NH4+—N (%) Day 14 (Horsham soil; [2]): 42.3 ± 4.6%
- Nitrified NH4+—N (%) Day 21 (Horsham soil; [2]): 74.9 ± 6.1%
- Nitrified NH4+—N (%) Day 28 (Horsham soil; [2]): 83.7 ± 6.1%
- retaining NH4+ vs uninhibited control treatment (Horsham soil; Horsham soil, 25° C., after 28 days): performed statistically better
- nitrification rates vs uninhibited control treatment (Horsham soil; Horsham soil, 35° C.): lower nitrification rates than the uninhibited control treatment
- retaining NH4+—N vs uninhibited control treatment and DMPP (Dahlen soil; Dahlen soil, 25° C., after 28 days): performed statistically better
- NOx−—N accumulation rate (Dahlen soil; Dahlen soil, 35° C., 28-day incubation): 1.8 mg NOx−—N/kg soil/day
- ammonia consumption (Dahlen soil; [3]): 17%
- retaining NH4+ vs both DMPP treatment and control treatment (Dahlen soil; [3]): performed statistically better
- Nitrified NH4+—N (%) Day 3 (Dahlen soil; [4]): 8.8 ± 3.3%
- Nitrified NH4+—N (%) Day 7 (Dahlen soil; [4]): 15.6 ± 5.0%
- Nitrified NH4+—N (%) Day 14 (Dahlen soil; [4]): 16.4 ± 28.7%
- Nitrified NH4+—N (%) Day 21 (Dahlen soil; [4]): 26.9 ± 4.6%
- Nitrified NH4+—N (%) Day 28 (Dahlen soil; [4]): 37.3 ± 4.4%
- Nitrified NH4+—N (%) Day 3 (Dahlen soil; [5]): 1.5 ± 1.4%
- Nitrified NH4+—N (%) Day 7 (Dahlen soil; [5]): 6.0 ± 1.5%
- Nitrified NH4+—N (%) Day 14 (Dahlen soil; [5]): 16.1 ± 4.5%
- Nitrified NH4+—N (%) Day 21 (Dahlen soil; [5]): 29.8 ± 1.2%
- Nitrified NH4+—N (%) Day 28 (Dahlen soil; [5]): 16.9 ± 2.6%
- Nitrified NH4+—N (%) Day 3 (South Johnstone soil; South Johnstone soil pH 5.0, 25° C., negative = NH4+—N higher than day 0 (mineralisation)): −6.3 ± 0.8%
- Nitrified NH4+—N (%) Day 7 (South Johnstone soil; [6]): −11.5 ± 0.8%
- Nitrified NH4+—N (%) Day 14 (South Johnstone soil; [6]): −14.4 ± 0.7%
- Nitrified NH4+—N (%) Day 21 (South Johnstone soil; [6]): −16.8 ± 1.2%
- Nitrified NH4+—N (%) Day 28 (South Johnstone soil; South Johnstone soil pH 5.0, 25° C., day 28): −13.2 ± 0.7%
- Nitrified NH4+—N (%) Day 3 (South Johnstone soil; [7]): −14.7 ± 1.9%
- Nitrified NH4+—N (%) Day 7 (South Johnstone soil; [7]): −26.3 ± 1.7%
- Nitrified NH4+—N (%) Day 14 (South Johnstone soil; [7]): −35.7 ± 2.4%
- Nitrified NH4+—N (%) Day 21 (South Johnstone soil; [7]): −35.7 ± 0.6%
- Nitrified NH4+—N (%) Day 28 (South Johnstone soil; South Johnstone soil pH 5.0, 35° C., day 28): −18.4 ± 2.3%
- retaining NH4+—N vs DMPP (South Johnstone soil; South Johnstone soil, 35° C.): performed statistically better than DMPP
- retaining NH4+—N and slowing NOx−—N growth vs fertilised control (South Johnstone soil; South Johnstone soil, 35° C., day 28): performed statistically better than the fertilised control
